Calls of active or inactive are those of the source.

The target in assay [1] is Lytic switch protein BZLF1 (Epstein-Barr virus (strain B95-8) (HHV-4) (Human herpesvirus 4), UniProt P03206). Briefly: inhibition of BZLF1 ZTA DNA binding – biochemical, fluorescence polarization, Epstein-Barr virus, 1536-well, counter-screen for EBNA-1 inhibitor project, dose response (AID 2377).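 Further: fluorescence polarization of Cy5-labelled ZRE DNA probe bound by purified Zta.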 Set-up: species or system human gammaherpesvirus 4. (In general: Fluorescence polarisation rises when a labelled molecule tumbles more slowly, as on binding a larger partner.)
Lytic switch protein BZLF1, sequence (P03206 whole entry): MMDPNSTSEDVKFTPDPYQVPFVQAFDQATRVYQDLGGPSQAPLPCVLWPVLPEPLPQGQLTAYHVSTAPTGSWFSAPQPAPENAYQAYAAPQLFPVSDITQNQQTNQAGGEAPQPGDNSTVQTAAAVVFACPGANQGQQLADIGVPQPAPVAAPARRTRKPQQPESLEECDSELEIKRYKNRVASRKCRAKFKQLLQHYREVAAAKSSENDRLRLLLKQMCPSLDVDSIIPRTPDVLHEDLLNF

The target in assay [2] is Epstein-Barr nuclear antigen 1 (Epstein-Barr virus (strain B95-8) (HHV-4) (Human herpesvirus 4), UniProt P03211). Briefly: inhibition of EBV nuclear antigen 1 DNA binding – biochemical, fluorescence polarization, 1536-well, dose response (AID 2381).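 Further: fluorescence polarization of a Cy5 DNA probe bound by EBNA-1 protein.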 Set-up: species or system human gammaherpesvirus 4.
Epstein-Barr nuclear antigen 1, sequence (P03211 whole entry): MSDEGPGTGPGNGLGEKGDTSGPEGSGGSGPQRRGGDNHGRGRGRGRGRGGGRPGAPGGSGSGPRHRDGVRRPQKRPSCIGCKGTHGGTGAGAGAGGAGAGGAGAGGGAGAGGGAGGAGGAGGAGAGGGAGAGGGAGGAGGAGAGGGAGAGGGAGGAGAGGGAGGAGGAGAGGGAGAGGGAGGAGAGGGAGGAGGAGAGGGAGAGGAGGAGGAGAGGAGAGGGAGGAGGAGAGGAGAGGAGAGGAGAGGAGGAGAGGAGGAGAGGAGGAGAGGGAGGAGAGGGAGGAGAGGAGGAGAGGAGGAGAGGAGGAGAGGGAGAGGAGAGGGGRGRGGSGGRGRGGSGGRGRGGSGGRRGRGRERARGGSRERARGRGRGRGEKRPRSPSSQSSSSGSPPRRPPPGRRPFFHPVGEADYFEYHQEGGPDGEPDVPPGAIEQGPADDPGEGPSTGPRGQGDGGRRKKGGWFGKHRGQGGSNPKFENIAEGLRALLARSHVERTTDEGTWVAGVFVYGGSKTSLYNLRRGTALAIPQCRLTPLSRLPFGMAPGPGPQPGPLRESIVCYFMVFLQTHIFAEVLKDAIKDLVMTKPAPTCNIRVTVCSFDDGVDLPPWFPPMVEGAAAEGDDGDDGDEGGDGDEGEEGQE
In assay [3] the target is Voltage-gated inwardly rectifying potassium channel KCNH2 (Homo sapiens, UniProt Q12809). Briefly: concentration-dependent hERG rescue from blockers – cell-based, thallium flux, dose response (AID 2121). Type of assay: ADME.
Voltage-gated inwardly rectifying potassium channel KCNH2, sequence (Q12809 whole entry): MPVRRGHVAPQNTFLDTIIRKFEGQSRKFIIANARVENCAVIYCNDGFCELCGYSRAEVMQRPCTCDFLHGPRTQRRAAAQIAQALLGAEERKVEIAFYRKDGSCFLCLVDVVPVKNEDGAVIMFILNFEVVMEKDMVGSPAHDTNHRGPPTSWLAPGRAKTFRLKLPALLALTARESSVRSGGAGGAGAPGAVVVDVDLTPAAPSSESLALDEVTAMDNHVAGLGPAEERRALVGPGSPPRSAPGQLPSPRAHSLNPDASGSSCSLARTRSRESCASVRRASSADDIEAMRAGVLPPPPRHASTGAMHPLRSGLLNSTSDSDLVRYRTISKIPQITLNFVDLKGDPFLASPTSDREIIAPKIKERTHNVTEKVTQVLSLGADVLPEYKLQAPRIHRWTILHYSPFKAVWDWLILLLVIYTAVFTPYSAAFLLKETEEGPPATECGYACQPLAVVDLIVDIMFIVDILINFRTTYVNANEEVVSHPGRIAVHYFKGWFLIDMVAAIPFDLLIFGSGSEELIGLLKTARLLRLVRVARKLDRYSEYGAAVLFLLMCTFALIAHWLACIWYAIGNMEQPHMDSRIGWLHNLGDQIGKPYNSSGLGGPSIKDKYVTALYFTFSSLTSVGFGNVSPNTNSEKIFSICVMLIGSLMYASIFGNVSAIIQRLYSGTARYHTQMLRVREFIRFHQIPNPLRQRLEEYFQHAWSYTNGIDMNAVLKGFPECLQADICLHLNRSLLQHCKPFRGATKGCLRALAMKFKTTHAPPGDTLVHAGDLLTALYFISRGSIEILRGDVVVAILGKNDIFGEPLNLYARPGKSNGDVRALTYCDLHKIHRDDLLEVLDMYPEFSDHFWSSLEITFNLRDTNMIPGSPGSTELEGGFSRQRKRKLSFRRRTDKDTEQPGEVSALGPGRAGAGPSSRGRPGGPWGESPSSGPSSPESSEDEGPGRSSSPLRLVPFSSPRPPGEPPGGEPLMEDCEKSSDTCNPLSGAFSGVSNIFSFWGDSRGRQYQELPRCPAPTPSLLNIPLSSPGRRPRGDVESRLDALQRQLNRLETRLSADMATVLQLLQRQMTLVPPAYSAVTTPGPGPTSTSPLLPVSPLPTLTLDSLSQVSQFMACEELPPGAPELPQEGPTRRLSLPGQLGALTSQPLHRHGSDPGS
Assay [4] in a line: A Cell Based Secondary Assay To Explore Cytotoxicity of Compounds that Sensitize Mycobacterium Tuberculosis to Beta-Lactam Antibiotics. In kind it is functional.
Assay [5] is described as follows: HPDE-C7 pancreatic duct cell viability loss – fluorescence, HTS (AID 430). Type of assay: functional, cell-based. To be noted: Homo sapiens.
Assay [6] in a line: viability loss of HPDE-C7K cells – cell-based, fluorescence, HTS, primary screen (AID 431). As to conditions: Homo sapiens. Type of assay: functional.
The nature of assay [7]: OVCAR4 cell viability loss – plate reader, dry powder, SA11, cytotoxicity control for PAX8 inhibitor project, dose response (AID 743150). Type of assay: functional, cell-based. As to conditions: OVCAR-4.
Assay [8] in a line: inhibitors acting on PAX2 in cells – cell-based, plate reader, dry powder samples, selectivity assay for PAX8 inhibitor project, dose response (AID 743048).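 Further: HEK293 cells carrying a WT1 promoter luciferase reporter driven by expressed Pax2; potency is for inhibition of Pax2 driven reporter signal.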 Type of assay: functional.
Assay [9] in a line: COV362 cell viability loss – plate reader, dry powder, SA12, cytotoxicity control for PAX8 inhibitor project, dose response (AID 743144). Type of assay: functional, cell-based.
Assay [10] in a line: A2780 cell killing – plate reader, dry powder samples, cytotoxicity control, dose response (AID 743046). Type of assay: functional, cell-based.
Assay [11] can be described thus: OVCAR8 cell viability loss – plate reader, dry powder samples, PAX8 project, dose response (AID 743197). In kind it is functional, cell-based. To be noted: OVCAR-8.
A short description of assay [12]: PAX8-dependent cell viability loss – plate reader, dry powder, dose response (AID 743049). In kind it is functional, cell-based.
Assay [13] in a line: COV434 cell viability loss – plate reader, dry powder, SA7, cytotoxicity control for PAX8 inhibitor project, dose response (AID 743145). Type of assay: functional, cell-based.
Assay [14] can be described thus: PAX5 cellular inhibition readout – cell-based, plate reader, dry powder samples, selectivity assay for PAX8 inhibitor project, dose response (AID 743047).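 Further: HEK293 cells carrying a Pax5 driven CD19 promoter luciferase reporter; potency of inhibitors that lower reporter luminescence.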 Type of assay: functional.
A further assay addresses Paired box protein Pax-8 (Homo sapiens, UniProt Q06710). Briefly: PAX8 transcriptional activity inhibition in RMG-I – RMG-I cells, luciferase, cherry-pick, dose response (AID 687027).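 Further: luciferase reporter driven by Pax8 target thyroperoxidase promoter measured by SteadyGlo luminescence.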 Type of assay: functional, cell-based.
Assay [15] in a line: growth inhibition of yeast DHODH-expressing 3D7 parasites – SYBR Green, dry powder samples, dose response (AID 1159570).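 Further: parasite growth measured after 72 hours of compound exposure.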 Type of assay: functional, cell-based.
Assay [16] in a line: toxicity to human HepG2 hepatoma cells – cell-based, plate reader, dry powder samples, cytotoxicity control, dose response (AID 1159569).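 Further: inhibitor potency with signal falling toward the positive control level.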 Type of assay: functional.
Assay [17] is described as follows: Dd2 malaria parasite growth inhibition potency – SYBR Green, dry powder samples, dose response (AID 1159566).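 Further: potency for growth inhibition with lower SYBR green DNA signal.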 Type of assay: functional, cell-based.
Assay [18] can be described thus: growth inhibition of PfATP4-mutant resistant parasites – NITD609-resistant line, SYBR Green, dry powder, dose response (AID 1159571).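 Further: parasites synchronized at ring stage by sorbitol before testing.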 In kind it is functional, cell-based.
Assay [19] is described as follows: OVCAR-3 cell viability loss – plate reader, dry powder samples, PAX8 inhibitor project, dose response (AID 743044). Type of assay: functional, cell-based.
Assay [20] can be described thus: reduced cellular PGC1a acetyl-lysine signal – cell-based, cherry-picked samples, dose response (AID 720514).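 Further: potency may reflect raised or lowered acetylation signal.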 Type of assay: functional.
Assay [21] in a line: P. falciparum Dd2 growth inhibitors, dose response, SYBR Green, cherry-picked samples (AID 1159567). Type of assay: functional, cell-based.
A short description of assay [22]: glucagon-like peptide-1 release potency in STC-1, concentration-response, half-maximal inhibitory concentration in the STC-1 line (AID 1117345). Type of assay: functional, cell-based.
Assay [23] is described as follows: Potency on glucagon-like peptide 1 release, dose-response in NCI-H716 cell line, half maximal inhibitory concentration (AID 1117344). In kind it is functional, cell-based.
A short description of assay [24]: IC50 of insulin release inhibition, rat insulinoma INS-1E line, 5 mM glucose, cell-based (AID 1117331). In kind it is functional.

Paired box protein Pax-8, sequence (Q06710 whole entry): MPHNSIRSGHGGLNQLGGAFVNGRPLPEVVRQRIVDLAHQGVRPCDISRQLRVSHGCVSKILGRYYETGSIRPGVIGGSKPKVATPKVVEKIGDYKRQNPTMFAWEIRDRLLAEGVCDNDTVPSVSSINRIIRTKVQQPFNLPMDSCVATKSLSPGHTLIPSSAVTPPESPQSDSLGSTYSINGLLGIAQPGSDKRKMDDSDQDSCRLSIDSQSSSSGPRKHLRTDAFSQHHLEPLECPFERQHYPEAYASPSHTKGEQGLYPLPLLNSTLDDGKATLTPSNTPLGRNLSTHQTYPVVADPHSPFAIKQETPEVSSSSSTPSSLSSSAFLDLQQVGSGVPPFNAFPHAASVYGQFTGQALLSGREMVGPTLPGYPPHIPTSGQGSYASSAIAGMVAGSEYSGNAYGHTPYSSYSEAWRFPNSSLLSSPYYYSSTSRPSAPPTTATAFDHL

With `CCN(CC)S(=O)(=O)c1ccc(C(=O)Nc2nnc(N=C(S)Nc3ccccc3)s2)cc1`, the figures for the IC50 in assay [1] and in [2] were > 111 µM (not active) and 6.46 µM (active), respectively.

On to `O=C(NCc1ccc2c(c1)OCO2)C1CCC(CNS(=O)(=O)c2ccc(Cl)cc2)CC1` (stereo unspecified), for which the values for the IC50 in [1] and in assay [2] were > 111 µM (not active) and > 148 µM (not active), respectively.

On to `Cc1ccc(C(=O)CC(=O)c2cccc(F)c2)c(O)c1`, for which, in assay [3], the EC50 is 3.76 µM (active).

As for `CC(O)/C=C/c1ccc2ccccc2n1` (stereo unspecified), the cytotoxic concentration (CC50) in [4] was 35.2 µM (active). The EC50 in assay [5] was 17.8 µM (active); in assay [6], > 20 µM (not active).

Turning to `N#C[C@@H]1[C@H](c2ccc(C#CC3CCCC3)cc2)[C@H](CO)N1C(=O)Nc1ccc(F)cc1`, the AC50 is 18.8 µM (active) in assay [7]; 9.84 µM (active) in assay [8]; 62.6 µM (active) in [9]; 19.4 µM (active) in assay [10]; > 70 µM (inactive) in assay [11]; 19.8 µM (active) in [12]. The AC50 in [13] was 46.9 µM (active); in [14], 9.89 µM (active); on Paired box protein Pax-8, 10.5 µM (active).

Turning to `COc1cccc(-c2ccc([C@@H]3[C@@H]4CN(C(=O)C5CC5)C[C@H]3N4)cc2)c1`, the AC50 in assay [15] is 0.85 µM (active); in assay [16] it was 34.3 µM (active); in assay [17], 0.634 µM (active); in assay [11], 39 µM (active); in [18] it was 1.03 µM (active); in assay [19] it was 43.6 µM (active). Moreover, the AC50 was 3.06 µM (active) on Paired box protein Pax-8, 24.1 µM (active) in [20] and 0.949 µM (active) in assay [21].

In the case of `C[C@H](CO)N1C[C@H](C)[C@@H](CN(C)Cc2ccc(-c3ccccc3)cc2)OCc2ccccc2-c2c(n(C)c3ccccc23)C1=O`, the AC50 in assay [15] was 2.06 µM (active); in [16], 19.1 µM (active); in assay [17] it was 0.865 µM (active); in [18] it was 1.46 µM (active); in assay [21] it was 2.35 µM (active).

Turning to `CC1=C(C(=O)O)N2C(=O)[C@@H](NC(=O)[C@H](N)c3ccccc3)[C@H]2SC1` [CEPHALEXIN ANHYDROUS], the IC50 in assay [22] and in assay [23] was > 40 µM (inactive) each time.

As for `CCCCCNC(=N)N/N=C/c1c[nH]c2ccc(OC)cc12` [TEGASEROD], the IC50 is 16.8 µM (inactive) in [24], > 40 µM (inactive) in [22] and 10.9 µM (inactive) in assay [23].

A word on the IC50: it is the point on the concentration scale where inhibition reaches its midpoint. In general, EC50 refers to the concentration giving half of the maximal effect. The term CC50 denotes the concentration that lowers cell viability or growth by half. By AC50 is commonly meant the midpoint of the concentration-response curve, whichever way the signal moves.
